The results in this text go back to patent publication US20260015363A1, “SUBSTITUTED PYRIMIDINE-FUSED RING INHIBITOR, METHOD FOR PREPARING SAME, AND USE THEREOF” (Suzhou Zelgen Biopharmaceuticals Co., Ltd., priority 2022, published 2026).

In the test the test system is AsPC-1 (G12D). Put plainly: KRAS mutant cell proliferation inhibition assay (CellTiter-Glo 3D), AsPC-1. To be noted: Homo sapiens, ASPC1, 168 h, AsPC-1 (G12D) cells, 7 days. Format: cell-based, human. How it is done: Positive control: MRTX1133
• (a) The cells were thawed in T75 cell culture flasks: • (b) When 80%-90% cell confluence was achieved, the cells were passaged.
The diluted test compound was added to a 384-well cell culture plate using a nanoliter pipetting system, and replicate wells were set. An equal volume of medium was added to the positive control group; an equal volume of DMSO was added to the negative control group. The plate was centrifuged at 1000 rpm at room temperature for 1 min.
The cells were seeded into a) 384-well culture plate. An equal volume of cells was added to the negative control group, and only an equal volume of medium was added to the positive control group. The plate was centrifuged at 1000 rpm at room temperature for 1 min. The final DMSO concentration in the final compound was 0.5%. The plate was incubated in a thermostatic incubator at 37° C. with 5% CO2 for 7 days.
CellTiter-Glo® 3D was added to b) 384-well cell culture plate at 20 μL/well. The plate was shaken at 320 rpm in the dark for 20 min, and incubated at room temperature in the dark for 2 h. The luminescence values were read using an Envision multi-mode microplate reader.
The inhibition rates (IRs) of the test compounds were calculated according to the following formula: IR (%)=(1−(RLU compound−RLU blank control)/(RLU vehicle control−RLU blank control))×100%. The inhibition rates of the compounds at different concentrations were calculated in Excel, and then inhibition curves were plotted and relevant parameters including minimum inhibition rate, maximum inhibition rate and IC50 were calculated using GraphPad Prism software.
(In general: ATP-based viability assays read luminescence as a measure of living cells.)

Molecules are shown by their SMILES. Counter-ions that a name gives are not always drawn. A value given as a limit tells only on which side of the number the result lay.

For orientation: IC50 means the concentration that inhibits the measured activity by half. A lower IC50 goes with higher potency. Consider `CCc1c(F)ccc2cc(O)cc(-c3ncc4c(N5CCC6(COC6)C5)nc(OC[C@@]56CCCN5C[C@@]5(CC5(F)F)C6)nc4c3F)c12` [Example A-21, 4-(2-(((1S,7a'S)-2,2-Difluorodihydro-1′H,3′H-spiro[cyclopropane-1,2′-pyrrolizin]-7a′ (5′H)-yl)methoxy)-8-fluoro-4-(2-oxa-6-azaspiro[3.4]octan-6-yl)pyrido[4,3-d]pyrimidin-7-yl)-5-ethyl-6-fluoronaphthalen-2-ol], for which the IC50 is greater than 1 µM.
With `CCc1c(F)ccc2cc(O)cc(-c3ncc4c(N5CCC6(CCO6)C5)nc(OC[C@@]56CCCN5C[C@@]5(CC5(F)F)C6)nc4c3F)c12` (stereo partly shown) [Example A-22, 4-(2-(((1.S,7a'S)-2,2-Difluorodihydro-1′H,3′H-spiro[cyclopropane-1,2′-pyrrolizin]-7a′ (5′H)-yl)methoxy)-8-fluoro-4-(1-oxa-6-azaspiro[3.4]octan-6-yl)pyrido[4,3-d]pyrimidin-7-yl)-5-ethyl-6-fluoronaphthalen-2-ol] the figure was greater than 1 µM; with `CCc1c(F)ccc2cc(O)cc(-c3ncc4c(N5CC6(CCO6)C5)nc(OC[C@@]56CCCN5C[C@@]5(CC5(F)F)C6)nc4c3F)c12` [Example A-23, 4-(2-(((1S,7a'S)-2,2-Difluorodihydro-1′H,3′H-spiro[cyclopropane-1,2′-pyrrolizin]-7a′ (5′H)-yl)methoxy)-8-fluoro-4-(1-oxa-6-azaspiro[3.4]heptan-6-yl)pyrido[4,3-d]pyrimidin-7-yl)-5-ethyl-6-fluoronaphthalen-2-ol], greater than 1 µM.
In turn, `CCc1c(F)ccc2cc(O)cc(-c3ncc4c(N(C)C5CC5)nc(OC[C@@]56CCCN5C[C@@]5(CC5(F)F)C6)nc4c3F)c12` [Example A-40, 4-(4-(Cyclopropyl(methyl)amino)-2-(((1S,7a'S)-2,2-difluorodihydro-1′H,3′ H-spiro[cyclopropane-1,2′-pyrrolizin]-7a′ (5′H)-yl)methoxy) 8-fluoropyrido[4,3-d]pyrimidin-7-yl)-5-ethyl-6-fluoronaphthalen-2-ol] came in with an IC50 greater than 1 µM.
Take `CN(c1nc(OC[C@@]23CCCN2C[C@@]2(CC2(F)F)C3)nc2c(F)c(-c3cc(N)cc(Cl)c3C(F)(F)F)ncc12)C1CC1` [Example A-41, 7-(5-Amino-3-chloro-2-(trifluoromethyl)phenyl)-N-cyclopropyl-2-(((1S,7a'S)-2,2-difluorodihydro-1′H,3′H-spiro[cyclopropane-1,2′-pyrrolizin]-7a′ (5′H)-yl)methoxy)-8-fluoro-N-methylpyrido[4,3-d]pyrimidin-4-amine]: the IC50 is greater than 1 µM.
`CCc1c(F)ccc2cc(O)cc(-c3ncc4c(N(C)C(C)C5CC5)nc(OC[C@@]56CCCN5C[C@@]5(CC5(F)F)C6)nc4c3F)c12` (stereo partly shown) [Example A-42, 4-(4-((1-Cyclopropylethyl)(methyl)amino)-2-(((15,7a'S)-2,2-difluorodihydro-1′H,3′H-spiro[cyclopropane-1,2′-pyrrolizin]-7a′ (5′H)-yl)methoxy)-8-fluoropyrido[4,3-d]pyrimidin-7-yl)-5-ethyl-6-fluoronaphthalen-2-ol trifluoroacetate] returned an IC50 greater than 1 µM.
The result for `CC(C1CC1)N(C)c1nc(OC[C@@]23CCCN2C[C@@]2(CC2(F)F)C3)nc2c(F)c(-c3cc(N)cc(Cl)c3C(F)(F)F)ncc12` (stereo partly shown) [Example A-43, 7-(5-Amino-3-chloro-2-(trifluoromethyl)phenyl)-N-(1-cyclopropylethyl)-2-(((1.S,7a'S)-2,2-difluorodihydro-1′H,3′H-spiro[cyclopropane-1,2′-pyrrolizin]-7a′ (5′H)-yl)methoxy)-8-fluoro-N-methylpyrido[4,3-d]pyrimidin-4-amine trifluoroacetate] reads 0.986 µM.
